Test results from publication PMC9498203, “Characterization and Preliminary Application of a Novel Lipoxygenase from Enterovibrio norvegicus” (Foods, 2022).

Target: T1, EnLOX (Enterovibrio norvegicus, UniProt A0A1I5T4S6)
T1 construct: gene SAMN03084138_03074; E. coli BL21(DE3); Ni-NTA purified
T1 sequence (A0A1I5T4S6 1-726): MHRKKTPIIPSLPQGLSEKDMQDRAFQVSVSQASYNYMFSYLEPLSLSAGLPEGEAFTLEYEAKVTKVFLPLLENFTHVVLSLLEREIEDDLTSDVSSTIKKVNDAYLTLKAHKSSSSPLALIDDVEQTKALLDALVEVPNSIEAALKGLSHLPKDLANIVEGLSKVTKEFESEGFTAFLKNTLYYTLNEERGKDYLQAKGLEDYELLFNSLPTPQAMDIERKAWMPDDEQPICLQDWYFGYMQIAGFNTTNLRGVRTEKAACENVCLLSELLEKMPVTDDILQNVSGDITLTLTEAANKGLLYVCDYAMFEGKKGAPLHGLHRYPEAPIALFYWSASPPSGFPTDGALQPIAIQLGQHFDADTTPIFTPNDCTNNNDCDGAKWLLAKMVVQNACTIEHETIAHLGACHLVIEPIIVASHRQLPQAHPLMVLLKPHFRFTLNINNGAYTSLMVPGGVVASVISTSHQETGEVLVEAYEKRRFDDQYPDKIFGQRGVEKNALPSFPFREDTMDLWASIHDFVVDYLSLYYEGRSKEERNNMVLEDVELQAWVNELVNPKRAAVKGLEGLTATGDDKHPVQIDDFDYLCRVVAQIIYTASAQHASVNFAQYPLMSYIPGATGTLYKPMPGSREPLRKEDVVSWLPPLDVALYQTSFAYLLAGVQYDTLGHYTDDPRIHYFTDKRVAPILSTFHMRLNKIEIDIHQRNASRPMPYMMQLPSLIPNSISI
Test: absorbance at […] nm, Michaelis-Menten nonlinear fit
Format: biochemical
Conditions: 20 mmol L^−1 Tris-HCl, pH 8.0, 50 °C

SMILES	Km [µM]
CC/C=C\C/C=C\C/C=C\CCCCCCCC(=O)O [ALA, α-linolenic acid]	2.32
CCCCC/C=C\C/C=C\C/C=C\CCCCC(=O)O [GLA, γ-linolenic acid]	8.79
